The source of these data is US9434684B2, “Oxime-substituted amide compound and pest control agent” (Nissan Chemical Industries, Ltd., priority 2012, dated 2016).

Data set [1] has as its system Phaeosphaeria nodorum (synonym: Septoria nodorum). As to the kind of experiment: Preventive effect against wheat glume blotch. The following applies: Parastagonospora nodorum, 192 h, 100 ppm solution (*), 2 + 6 days. The format is in vivo.
Data set [2] has as its system Botrytis cinerea. As to the kind of experiment: Preventive effect against cucumber gray mold (mycelium inoculation). In kind it is in vivo. The conditions noted are these: 48 h, 100 ppm solution (*), 2 days.
For data set [3], the system named is Sclerotinia sclerotiorum. As to the kind of experiment: Preventive effect against cucumber stem rot. In kind it is in vivo. The following applies: 48 h, 100 ppm solution (*), 2 days.
Data set [4] has as its system Botrytis cinerea. Nature of the data set: Preventive effect against cucumber gray mold (spore inoculation). In kind it is in vivo. The conditions noted are these: 72 h, cucumber leaves, 100 ppm solution (*), 3 days.
The test system of a further data set is Meloidogyne incognita. Nature of the data set: Preventive effect on Meloidogyne incognita (garden balsam seedlings, root knot). In kind it is in vivo. The conditions noted are these: 504 h, test solution B 100 ppm, 1 ml per seedling, 3 weeks, read-out: efficacy (damage degree, root knot, relative to non-treated plot). As to the method:
Compounds of the present invention were dissolved in dimethylsulfoxide to prepare 1% solutions. Then, distilled water was added to dilute the solutions to the predetermined concentration (100 ppm), and the obtained solutions were used in the following Test Examples 8 to 12. 1 ml per seedling of test solutions B of the compounds of the present invention were treated to the bases of garden balsam seedlings (about 2 weeks after budding) planted in a cell tray of which each cell was filled with 10 g of soil. 1 Hour after the application, 1 ml per cell of water containing Meloidogyne incognita 2 L larvae (100 2 L larvae/1 ml) was applied to the bases. The tray was placed in a greenhouse for 3 weeks, and the root knot level formed on the root was determined in accordance with the following damage index and the damage degree to calculate the efficacy (%) relative to the non-treated plot in accordance with the following formula. <Damage Index> 0: No knot observed. 1: Knot observed on a part of the root system. 2: Knot observed on the entire root system. 3: Large knot observed. 4: Large knot observed on the entire root system. [Damage degree]=[Σ(damage index×number of seedlings at each index)/(4×number of seedlings investigated)]×100 Efficacy(%)=[1−(damage degree in treated plot/damage degree in non-treated plot)]×100

Data set [5] has as its system Sclerotinia sclerotiorum. Nature of the data set: Preventive effect against cucumber stem rot. The format is in vivo. The conditions noted are these: 48 h, test solution A 500 ppm, 2 days. The protocol: Compounds of the present invention were dissolved in a solvent for emulsion (a mixture of Sorpol (registered trademark) 3005XL (manufactured by Toho Chemical Industry Co., Ltd.): N-methylpyrrolidone:Solvesso (registered trademark) 200 (manufactured by ExxonMobil Chemical) in a ratio of 1:5:2) to prepare 20% emulsifiable concentrates. Then, distilled water was added to dilute the emulsifiable concentrates to the predetermined concentration (500 ppm), and the obtained solutions were used in the following Test Examples 1 to 7. Cucumber (cultivar: Sagami Hanjiro) was planted in 90 cm^3 plastic pots, and in the seed leaf stage, 5 ml per pot of test solutions A of the compounds of the present invention were applied. After drying in air, the pots were put in a plastic container, and agar blocks (diameter: 5 mm) containing Sclerotinia sclerotiorum preliminarily cultivated in a PDA medium were inoculated to the seed leaves of the cucumber treated with the solutions. After the inoculation, the plastic container was covered with a plastic sheet and humidified, and placed at 20° C. for 2 days, whereupon the proportion of the formed lesion in the inoculated leaves was measured to calculate the control value in accordance with the same formula as in Test Example 1. Here, the test was carried out in duplicate.

The structures appear in SMILES notation.

In general, melting point refers to the temperature, or range, at which the solid turns liquid. On to `CC(C)O/N=C(/CNC(=O)c1ccccc1C(F)(F)F)c1ncc(C(F)(F)F)cc1Cl` [Compound No. 2-020, (Z)—N-[2-[3-chloro-5-(trifluoromethyl)pyridin-2-yl]-2-(isopropoxyimino)ethyl]-2-(trifluoromethyl)benzamide], for which the melting point is 97 to 98 °C. The pest or weed control at 100 ppm in data set [1] was no less than 70%. Besides, the pest or weed control at 100 ppm with Botrytis cinerea [2] is no less than 70%. Moreover, the pest or weed control at 100 ppm with Sclerotinia sclerotiorum [3] is no less than 70%. For the same compound, the pest or weed control at 100 ppm in the data set with Botrytis cinerea [4] is no less than 70%.
As for `CO/N=C(/CNC(=O)c1ccccc1C(F)(F)F)c1ncc(Cl)cc1Cl` [Compound No. 2-114, (Z)—N-[2-(3,5-dichloropyridin-2-yl)-2-(methoxyimino)ethyl]-2-(trifluoromethyl)benzamide], the melting point lay in the range of 88 to 89 °C. The pest or weed control at 100 µg/mL with Meloidogyne incognita is no less than 50%. In addition, the pest or weed control at 500 µg/mL in the data set with Sclerotinia sclerotiorum [5] was no less than 70%. Further, the pest or weed control at 100 ppm in the data set with Botrytis cinerea [2] is no less than 70%. For the same compound, in the data set on Botrytis cinerea [4], the pest or weed control at 100 ppm was no less than 70%.
